The record followed here is US8809583B2, “Methods for producing isomers of muconic acid and muconate salts” (Amyris, Inc., priority 2010, dated 2014).

A short description of this data set: Isomerization of cis,cis-muconate to cis,trans-muconate in crude fermentation broth, monitored by 1H NMR and HPLC. Type of data set: physicochemical. The settings on record: for time until isomerization cis,cis to cis,trans is essentially complete: pH 4, 60° C. How it is done: cis,cis-muconate produced from a renewable carbon source through biocatalytic conversion (e.g., according to the method of Examples 7 and 7A) was provided, and the fermentation culture including the cis,cis-muconate was warmed to 60° C. The warmed fermentation culture was adjusted to pH 4 by adding 2 N sulfuric acid over 0.5 h. The acidified culture was allowed to react for 3.5 h.
The reaction was monitored by ^1H NMR and HPLC equipped with the Prevail Organic Acid Column (150 mm×4.6 mm), to determine the endpoint of the reaction. […] In general, such isomerization reactions can be monitored to determine appropriate reaction parameters (e.g., time, temperature, pH, and the like).

Take `O=C(O)/C=C\C=C/C(=O)O` [cis,cis-muconate, cis,cis-muconic acid]: the “time until isomerization cis,cis to cis,trans is essentially complete” value by setting is: (HPLC traces and time course) “about 1.25 hours”; (crude fermentation broth, 1H NMR) “about 1.25 hours”. In addition, the “isomerization from cis,cis to cis,trans-muconic acid” value (pH 7, HPLC traces and time course) was “essentially no isomerization”. In addition, the “isomerization from cis,cis to cis,trans muconic acid” value (pH 7, crude fermentation broth, 0 to 3.25 hours, 1H NMR) is on record as “essentially no isomerization”.
